Tests used:
[1] = target: T1, Ba/F3 cells transformed with human Tel-TrkA (Homo sapiens, UniProt P04629); experiment: Proliferation of Ba/F3 cells transformed with human Tel-TrkA (Ba/F3 Tel-TrkA); type: cell-based; settings: Table 1; 48 hours, Bright Glo luminescence; read-out: Ba/F3 Tel-TrkA
T1 construct: expressed in transfected cells; host or cells: Ba/F3 murine hematopoietic progenitor cells (luciferase expressing); the other entry of the earlier key: ETV6 (P41212, Transcription factor ETV6)
T1 sequence (P04629 510-796 limits assumed): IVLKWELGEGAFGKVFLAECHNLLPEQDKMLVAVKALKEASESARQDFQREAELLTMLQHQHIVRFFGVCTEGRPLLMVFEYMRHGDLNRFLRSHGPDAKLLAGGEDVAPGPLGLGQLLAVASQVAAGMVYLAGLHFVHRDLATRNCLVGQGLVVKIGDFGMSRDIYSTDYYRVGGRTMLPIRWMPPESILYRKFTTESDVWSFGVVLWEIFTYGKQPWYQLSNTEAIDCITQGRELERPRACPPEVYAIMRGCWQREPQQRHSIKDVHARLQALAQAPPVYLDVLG
Text: (§1) Compound dilutions were made in 384 well plates.
(§2) The emited luminiscence is quantified using ViewLux (PerkinElmer).

parental Ba/F3 cells = experiment: Proliferation of parental (untransformed, wt) Ba/F3 cells (BAF3/WT); type: cell-based, murine; settings: Mus musculus, Table 1, parental cells with IL3, 48 hours
Description: as §1
Compounds were tested for their ability to inhibit the proliferation of wt Ba/F3 cells and Ba/F3 cells transformed with constitutively expressed luciferase reporter and BCR-ABL or Tel-FMS or other Tel fusion kinases (EGFR, JAK2, ALK, BMX, FGFR3, FGFR4, FGR2, FLT1, FLT3, IGF1R, INSR, KDR, KIT, LCK, LYN, MEK, MET, PDGFRα, PDGFRβ, RET, RON, ROS, SRC, SYK, TIE and TYRO) or BRafV600E. Parental Ba/F3 cells were maintained in media containing recombinant mouse IL3 and the kinase transformed Ba/F3 cells were maintained in media without IL-3. 7.5 nl of compounds were spotted to each well of 1536-well assay plates by Liquid handling System Echo 555 (Labcyte). 700 cells were then plated into each well of the assay plates in 7 uL culture media per well and compounds were tested at 0.17 nM to 10 uM in 3-fold serial dilutions. The cells were then incubated for 48 hours at 37° C. 3 uL of Bright-Glo® (Promega) was added to each well and the plates were read using ViewLux (PerkinElmer).
as §2

IC50 [1] [nM] | SMILES | IC50 (parental Ba/F3 cells) [nM]
93 | CCOC(=O)c1cnc2ccc(N3CCCCC3c3cccc(F)c3)nn12 (stereo not shown) [X-156, ethyl 6-(2-(3-fluorophenyl)piperidin-1-yl)imidazo[1,2-b]pyridazine-3-carboxylate] | > 10000
174 | O=C(/C=C/c1cccc(N2CCOCC2)n1)c1cnc2ccc(N3CCC[C@@H]3c3cccc(F)c3)nn12 [X-128] | 1390
127 | CC(C)(C)OC(=O)NCC(=O)Nc1cnc2ccc(N3CCC[C@@H]3c3cccc(F)c3)nn12 [X-192] | > 10000
132 | CO/N=C(/N)c1cnc2ccc(N3CCC[C@@H]3c3cccc(F)c3)nn12 [X-228, (R)-6-(2-(3-fluorophenyl)pyrrolidin-1-yl)-N′-methoxyimidazo[1,2-b]pyridazine-3-carboximidamide] | > 10000
46 | CC(=O)OC(C)(C)C(=O)Nc1cnc2ccc(N3CCC[C@@H]3c3cccc(F)c3)nn12 [X-188] | > 10000
56 | N#Cc1cnc2ccc(N3CC(F)(F)C[C@@H]3c3cccc(F)c3)nn12 [X-246, (R)-6-(4,4-difluoro-2-(3-fluorophenyl)pyrrolidin-1-yl)imidazo[1,2-b]pyridazine-3-carbonitrile] | > 10000
229 | COCCC(=O)Nc1cnc2ccc(N3CCC[C@@H]3c3cccc(F)c3)nn12 [X-173] | > 10000
194 | CCOC(=O)c1cnc2ccc(N3C[C@@H](F)C[C@@H]3c3ccc(F)c(F)c3)nn12 [X-239] | > 10000
44 | NC(=NO)c1cnc2ccc(N3CCC[C@@H]3c3cccc(F)c3)nn12 [X-227, (Z)-6-(2-(3-fluorophenyl)pyrrolidin-1-yl)-N′-hydroxyimidazo[1,2-b]pyridazine-3-carboximidamide] | > 10000
198 | NC(=O)c1cnc2ccc(N3C[C@@H](F)C[C@@H]3c3ccc(F)c(F)c3)nn12 [X-240] | > 10000
44 | Fc1cccc([C@H]2CC(F)(F)CN2c2ccc3ncc(Br)n3n2)c1 [X-245, (R)-3-bromo-6-(4,4-difluoro-2-(3-fluorophenyl)pyrrolidin-1-yl)imidazo[1,2-b]pyridazine] | > 10000
18 | COC(=O)NC(=O)c1cnc2ccc(N3CC(F)(F)C[C@@H]3c3cccc(F)c3)nn12 [X-249] | > 10000
78 | COc1ccc(OCC(=O)Nc2cnc3ccc(N4CCC[C@@H]4c4cccc(F)c4)nn23)cc1 [X-186] | > 10000
165 | NC(=NO)c1cnc2ccc(N3CCCC3c3cccc(F)c3)nn12 (stereo not shown) [X-226] | > 10000
379 | CC(C)(C)OC(=O)Nc1cnc2ccc(N3CCC[C@@H]3c3cccc(F)c3)nn12 [X-233] | > 10000
118 | NCC(=O)Nc1cnc2ccc(N3CCC[C@@H]3c3cccc(F)c3)nn12 [X-193] | > 10000

Continued, compound first:

SMILES | IC50 [1] [nM] | IC50 (parental Ba/F3 cells) [nM]
NC(=O)c1cnc2ccc(N3CCCCC3c3cccc(F)c3)nn12 (stereo not shown) [X-18] | 27 | > 10000
O=C(NCC(F)(F)F)c1cnc2ccc(N3CCC[C@@H]3c3cccc(F)c3)nn12 [X-53] | 3 | > 10000
O=C(NC1CCCC1)c1cnc2ccc(N3CCC[C@@H]3c3cccc(F)c3)nn12 [X-48] | 37 | > 10000
COC[C@H](C)NC(=O)c1cnc2ccc(N3CCC[C@@H]3c3cccc(F)c3)nn12 [X-54] | 53 | > 10000
O=C(NC(CO)(CO)CO)c1cnc2ccc(N3CCC[C@@H]3c3cccc(F)c3)nn12 [X-101] | 452 | > 10000
CS(=O)(=O)N1CC(NC(=O)c2cnc3ccc(N4CCC[C@@H]4c4cccc(F)c4)nn23)C1 [X-68] | 38 | > 10000
CCC(=O)c1cnc2ccc(N3CCC[C@@H]3c3cccc(F)c3)nn12 [X-123, (R)-1-(6-(2-(3-fluorophenyl)pyrrolidin-1-yl)imidazo[1,2-b]pyridazin-3-yl)propan-1-one] | 97 | > 10000
O=C(NC[C@H]1CCCO1)c1cnc2ccc(N3CCC[C@@H]3c3cccc(F)c3)nn12 [X-84] | 30 | > 10000
O=C(NC1CCC1)c1cnc2ccc(N3CCC[C@@H]3c3cccc(F)c3)nn12 [X-46] | 20 | > 10000
O=C(NCCCl)Nc1cnc2ccc(N3CCC[C@H]3c3cccc(F)c3)nn12 [X-209] | 252 | > 10000
O=C(c1cnc2ccc(N3CCC[C@@H]3c3cccc(F)c3)nn12)C(F)F [X-124] | 844 | > 10000
O=C(Nc1cnc2ccc(N3CC(F)(F)C[C@@H]3c3cccc(F)c3)nn12)Oc1ccccc1 [X-238] | 445 | > 10000
O=C(NCCO)c1cnc2ccc(N3CCC[C@@H]3c3cccc(F)c3)nn12 [X-79] | 61 | > 10000
O=C(NC1CC1)c1cnc2ccc(N3CCC[C@@H]3c3cccc(F)c3)nn12 [X-44] | 11 | > 10000
CC(C)NC(=O)c1cnc2ccc(N3CCC[C@@H]3c3cccc(F)c3)nn12 [X-39] | 14 | > 10000
O=C(NCC1CC1)c1cnc2ccc(N3CCC[C@@H]3c3cccc(F)c3)nn12 [X-90] | 14 | > 10000
O=C(CCc1cccc(F)c1)c1cnc2ccc(N3CCC[C@@H]3c3cccc(F)c3)nn12 [X-127, (R)-3-(3-fluorophenyl)-1-(6-(2-(3-fluorophenyl)pyrrolidin-1-yl)imidazo[1,2-b]pyridazin-3-yl)propan-1-one] | 38 | > 10000
NC(=O)c1cnc2ccc(N3C[C@@H](F)C[C@@H]3c3cccc(F)c3)nn12 [X-7, 6-((2R,4S)-4-fluoro-2-(3-fluorophenyl)pyrrolidin-1-yl)imidazo[1,2-b]pyridazine-3-carboxamide] | 5 | 3560
O=C(NC1CCCCC1)c1cnc2ccc(N3CCC[C@@H]3c3cccc(F)c3)nn12 [X-49] | 22 | > 9340

SMILES | IC50 [1] [nM] | IC50 (parental Ba/F3 cells) [nM]
O=C(NCc1ccc(Cl)nc1)c1cnc2ccc(N3CCC[C@@H]3c3cccc(F)c3)nn12 [X-57] | 190 | > 10000
C[C@@H]1CN(c2ccc3ncc(C#N)n3n2)[C@@H](c2cccc(F)c2)C1(F)F [X-4, 6-((2S,4R)-3,3-difluoro-2-(3-fluorophenyl)-4-methylpyrrolidin-1-yl)imidazo[1,2-b]pyridazine-3-carbonitrile] | 155 | > 10000
CC(=O)N1CC(NC(=O)c2cnc3ccc(N4CCC[C@@H]4c4cccc(F)c4)nn23)C1 [X-64] | 832 | > 10000
O=C(NCC(F)(F)C(F)(F)F)c1cnc2ccc(N3CCC[C@H]3c3cccc(F)c3)nn12 [X-60] | 35 | > 10000
CC(C)(C)OC(=O)N1CCC(NC(=O)c2cnc3ccc(N4CCC[C@@H]4c4cccc(F)c4)nn23)CC1 [X-63] | 60 | > 10000
O=C(NCC1CCC1)c1cnc2ccc(N3CCC[C@@H]3c3cccc(F)c3)nn12 [X-22] | 47 | > 10000
CC(C)(C)OC(=O)N1CCC(NC(=O)c2cnc3ccc(N4C[C@@H](F)C[C@@H]4c4cccc(F)c4)nn23)CC1 [X-115] | 1 | 4600
[2H]C1([2H])C(c2cccc(F)c2)N(c2ccc3ncc(C(N)=O)n3n2)C([2H])([2H])C1([2H])[2H] (stereo not shown) [X-12] | 105 | > 10000
NC(=O)c1cnc2ccc(N3CCOC[C@H]3c3cccc(F)c3)nn12 [X-17, (R)-6-(3-(3-fluorophenyl)morpholino)imidazo[1,2-b]pyridazine-3-carboxamide] | 328 | > 10000
[2H]C1([2H])CC[C@@H](c2cccc(F)c2)N1c1ccc2ncc(C(N)=O)n2n1 [X-10] | 841 | > 10000
CC(C)S(=O)(=O)N1CC[C@H](NC(=O)c2cnc3ccc(N4CCC[C@@H]4c4cccc(F)c4)nn23)C1 [X-31] | 124 | > 10000
N#Cc1ccc(CNC(=O)c2cnc3ccc(N4CCC[C@@H]4c4cccc(F)c4)nn23)cc1 [X-89] | 164 | > 10000
O=C(NCCC1CCCCC1)c1cnc2ccc(N3CCC[C@@H]3c3cccc(F)c3)nn12 [X-91] | 289 | 6160
CC(C)C[C@@H](CO)NC(=O)c1cnc2ccc(N3CCC[C@@H]3c3cccc(F)c3)nn12 [X-104] | 697 | > 10000
NC(=O)c1cnc2ccc(N3CCCC[C@@H]3c3cccc(F)c3)nn12 [X-19] | 79 | > 10000
O=C(NC1CCNCC1)c1cnc2ccc(N3C[C@@H](F)C[C@@H]3c3cccc(F)c3)nn12 [X-120] | 331 | > 10000
NC(=O)c1cnc2ccc(N3CCOCC3c3cccc(F)c3)nn12 (racemic) [X-16, 6-(3-(3-fluorophenyl)morpholino)imidazo[1,2-b]pyridazine-3-carboxamide] | 614 | > 10000
O=C(NCCC1CCCC1)c1cnc2ccc(N3CCC[C@@H]3c3cccc(F)c3)nn12 [X-108] | 191 | 6480
